Experimental data taken from ChEMBL document CHEMBL1128027, “Total synthesis of a novel benz[A]anthracycline analog of the antitumor agent 4-demethoxydaunorubicin” (Bioorg Med Chem Lett, 1994).
pIC50: −log10 of the molar value.

System: CCRF-CEM
Assay: Cytotoxicity tested in vitro against T-lymphoid leukemic cell line
Type: functional, cell-based
Conditions: Homo sapiens

Row | SMILES | pIC50
1 | CC(=O)[C@@]1(O)Cc2c3c(c(O)c(O)c2[C@H](OC2CC(N)C(O)C(C)O2)C1)C(=O)c1ccccc1C3=O (stereo partly drawn) | 6.00
2 | CC(=O)[C@]1(O)Cc2c3c(c(O)c(O)c2[C@@H](OC2CC(N)C(O)C(C)O2)C1)C(=O)c1ccccc1C3=O (stereo partly drawn) | 6.00
3 | COc1cccc2c1C(=O)c1c(O)c3c(c(O)c1C2=O)C[C@@](O)(C(=O)CO)C[C@@H]3O[C@H]1C[C@H](N)[C@H](O)[C@H](C)O1 [DOXORUBICIN] | 7.70
